Reference: patent US20110123530A1, “COMPOSITIONS AND METHODS FOR TREATING AND DIAGNOSING ASTHMA” (priority 2008, published 2011)

Key:
[1] = test system: IL-4/13 signature genes in bronchial airway epithelium; assay: Microarray analysis of bronchial epithelial brushings at baseline and after one week of ICS treatment; assay type: in vivo, human
From the text: (A) Periostin expression; (B) PRR4 expression; (C) RUNX2 expression.
We studied biological samples stored in the Airway Tissue Bank at the University of California, San Francisco (UCSF) that had been collected during bronchoscopy performed for research purposes in healthy and asthmatic volunteers. Research bronchoscopy had included collection of epithelial brushings, bronchoalveolar lavage (BAL) and bronchial biopsies using specific methods previously described. BAL cell counts and differentials had been performed and databased, and macrophages had been sorted from BAL fluid using flow cytometry. Four to six bronchial biopsies had been obtained from 2nd-through 5th-order carinae (contralateral to the brushing site), formalin-fixed, and then paraffin-embedded in isotropic uniform random orientation to enable quantitative measures of inflammation and remodeling using methods of design-based stereology. An additional 2 bronchial biopsies had been homogenized and processed for RNA using the Qiagen RNeasy minikit (Qiagen Inc., Valencia, Calif.). RNA extracted from epithelial brushings, homogenates of bronchial biopsies, and lavage macrophages had been quality assured and aliquoted for future microrray- and PCR-based gene profiling. All research bronchoscopy studies had been approved by the UCSF Committee on Human Research (CHR), written informed consent had been obtained from all subjects, and all studies had been performed in accordance with the principles expressed in the Declaration of Helsinki The Airway Tissue Bank procedures were also reviewed and approved by UCSF's CHR. Samples of epithelial brushings and macrophages from this tissue bank have been used in previously reported studies. Most recently, microarray analyses of differentially expressed genes in epithelial brushings in asthmatic subjects have been reported by us.
Thirty-two of the subjects with asthma had also been enrolled in a double-blind randomized controlled clinical trial of inhaled fluticasone (500 μg, twice daily, N=19) or matched placebo (N=13) (ClinicalTrials.gov Identifier: NCT00187499). The trial was designed to determine the effects of inhaled steroid (fluticasone) on airway gene expression and to relate gene expression changes to improvements in lung function. The asthma subjects in the clinical trial had undergone baseline bronchoscopy and had been randomized to receive study medication before undergoing repeat bronchoscopy one week later after starting study drug. Asthma subjects continued study medication for a total of 8 weeks. Healthy control subjects and smokers were enrolled in one of three cross-sectional studies, which comprised two visits each, the first for characterization and the second for bronchoscopy 1 week later. Thirty-five subjects had adequate baseline bronchoscopy, and 32 had RNA available from epithelial brushings at both bronchoscopies. Lung function was measured (by spirometry) after 4 weeks and 8 weeks on study medication, and a final spirometry was completed after a one week run-out. […]
Microarray data from mild-moderate non-smoking asthma patients and healthy non-smoking subjects were obtained from a previous study as described. […] Microarray data was analysed in the present study to determine whether genes were differentially regulated within the asthmatic group. Also, the microarray data was analyzed to determine whether other genes were co-regulated with top asthma-related, IL-13 induced genes. […]

[2] = test system: subjects with asthma; assay: Randomized controlled trial of inhaled fluticasone or placebo: FEV1 by spirometry; assay type: in vivo, human; conditions: for Improvement in FEV1 as compared to subjects treated with placebo: inhaled fluticasone, 4 and 8 weeks; for ΔFEV1 with fluticasone at 4 weeks / ΔFEV1 with fluticasone 8 weeks: asthma, inhaled fluticasone 500 μg twice daily, mean ± SD
Procedure: “Forced expiratory volume (FEV1)” refers to a standard test that measures the volume of air expelled in the first second of a forced expiration. […] To perform spirometry, a person inhales deeply, closes the mouth tightly around the tube and then exhales through the tubing while measurements are taken. The volume of air exhaled, and the length of time each breath takes is recorded and analyzed. Spirometry results are expressed as a percentage. Examples of normal spirometry results include a FEV1 of 75 percent of vital capacity after one second. An example of abnormal spirometry results include a reading of less than 80 percent of the normal predicted value. An abnormal result usually indicates the presence of some degree of obstructive lung disease such as asthma, emphysema or chronic bronchitis, or restrictive lung disease such as pulmonary fibrosis. For example, FEV1 values (percentage of predicted) can be used to classify the obstruction that may occur with asthma and other obstructive lung diseases like emphysema or chronic bronchitis: FEV1 […] to 79 percent predicted=mild obstruction, FEV1 40 percent to 59 percent predicted=moderate obstruction, and FEV1 less than 40 percent predicted=severe obstruction. Thirty-two of the subjects with asthma had also been enrolled in a double-blind randomized controlled clinical trial of inhaled fluticasone (500 μg, twice daily, N=19) or matched placebo (N=13) (ClinicalTrials.gov Identifier: NCT00187499). The trial was designed to determine the effects of inhaled steroid (fluticasone) on airway gene expression and to relate gene expression changes to improvements in lung function. The asthma subjects in the clinical trial had undergone baseline bronchoscopy and had been randomized to receive study medication before undergoing repeat bronchoscopy one week later after starting study drug. Asthma subjects continued study medication for a total of 8 weeks. Healthy control subjects and smokers were enrolled in one of three cross-sectional studies, which comprised two visits each, the first for characterization and the second for bronchoscopy 1 week later. Thirty-five subjects had adequate baseline bronchoscopy, and 32 had RNA available from epithelial brushings at both bronchoscopies. Lung function was measured (by spirometry) after 4 weeks and 8 weeks on study medication, and a final spirometry was completed after a one week run-out. Methods for bronchoscopy, epithelial brushing, bronchoalveaolar lavage, spirometry, and sample handling were identical across all studies. Bronchoalveolar lavage (BAL) was performed by instilling 4 aliquots of 50 ml of sterile saline into either the lingula or right middle lobe, with recovery by suction. Cell counts were performed using a hemocytometer and Turks solution (1% glacial acetic acid and 0.01% gentian violet in distilled H2O). Then BAL cell differentials were performed on cytocentrifuged preparations using the Shandon Kwik-Diff stain kit (Thermo Fisher Scientific, Waltham Mass.). Thirty-two of the subjects with asthma were also enrolled in a double-blind randomized controlled clinical trial of inhaled fluticasone (500 mcg BID) or matched placebo. In addition to the inclusion criteria above, these subjects were also required to have either asthma symptoms on 2 or more days per week, or β-agonist use on 2 or more days per week, or FEV1<85% predicted. Subjects in the clinical trial underwent a baseline visit and baseline bronchoscopy as described above, were randomized to receive study medication and underwent repeat bronchoscopy one week later. Then, they continued study medication for a total of 8 weeks with scheduled re-assessment of spirometry and methacholine challenge testing. […]

[3] = 19 subjects, one week of ICS treatment, vast majority of genes
[4] = individual subjects after one week of ICS treatment

## CCC(=O)O[C@]1(C(=O)SCF)[C@H](C)C[C@H]2[C@@H]3C[C@H](F)C4=CC(=O)C=C[C@]4(C)[C@@]3(F)[C@@H](O)C[C@@]21C [fluticasone, fluticasone propionate]
[1]; [3]
  Expression of IL-4/13 signature genes (Table 2) in asthmatic bronchial airway epithelium: significantly downregulated
  Expression of IL-13 signature genes (Table 9) in asthmatic bronchial airway epithelium: significantly downregulated
[1]; [4]
  PRR4 expression in bronchial epithelial brushings: not substantially downregulated
  RUNX2 expression in bronchial epithelial brushings: not substantially downregulated
[1]; subjects with IL-13 high asthma at baseline, after one week of fluticasone treatment
  Hierarchical clustering by periostin, CLCA1 and serpinB2 expression in bronchial epithelium: clustered with subjects who were IL-13 low at baseline
[2]; IL-13 high asthma subphenotype
  Improvement in FEV1 as compared to subjects treated with placebo: significant improvements in FEV1
[2]; IL-13 high group, week 9
  Improvements in FEV1 after a one week run out period off drug: lost
[2]; IL-13 low asthma subphenotype
  Improvement in FEV1 as compared to subjects treated with placebo: did not
[2]; IL13 Signature Low
  ΔFEV1 with fluticasone at 4 weeks: 0.03 ± 0.12 L
  ΔFEV1 with fluticasone 8 weeks: 0.04 ± 0.12 L
[2]; IL-13 Signature High
  ΔFEV1 with fluticasone at 4 weeks: 0.35 ± 0.2 L
  ΔFEV1 with fluticasone 8 weeks: 0.25 ± 0.23 L
